Reference: patent publication US10806121B2, “Animal litter containing a pheromone composition” (Sergeant's Pet Care Products, LLC, priority 2014, dated 2020)

Columns and labels:
cats [1] = assay: Study 2: behavior scores of paired unfamiliar cats, CON litter Day 1 then RP litter Day 2; format: in vivo; design: litter box weight, RP after / litter box weight, Change (RP): unit not given here; details: for Average aggression score by pair, Day 2 (RP): total possible 48
Method: During the studies, cat behavior was captured on video for the duration of the 24- or 48-hour period depending on the specific study. Red lights were used at night to allow for continuous observation. A scan sampling method was used to record cat behaviors each 5 minutes. The recorded videos were subsequently reviewed and analyzed in each 5-minute scan sample, with tape playing 30 frames per second. At each 5-minute time point, each cat was categorized as anxious or relaxed. Aggression or litter box usage occurred between 5-minute periods were also noted. Because each scan sample is of 5-minute period, a total of 24 observations for each individual behavior are possible for each 2 hours. The instances of an individual behavior (An; n=1, 2, 3, . . . 24) in each 5-minute period were totaled for instances in each 2 hours (Bm=ΣAn, n=1, 2, 3, . . . 24; m=1, 2, 3, . . . 12) over 24 hours. The behavioral score for each 2-hour period is ΣAn/24 (n=1, 2, 3, . . . , 24). A behavioral score for a 24-hour period is ΣBm/12 (m=1, 2, 3, . . . 12). Among all behavior assessed, aggression, in-litter-box and anxiety were scored as yes or no during each 5 minutes (An=1 or 0; n=1, 2, 3, . . . 24). In addition, anxiety was measured as a percentage of the total time that the cat was experiencing anxiety. As such the anxiety related behavioral score for a 24-hour period is 0.347×ΣBm (%) (Bm=ΣAn(%), n=1, 2, 3, . . . 24; m=1, 2, 3, . . . 12), which reflects the percentage of time over 24 hours that the cats are experiencing anxiety. Moreover, when ranking cat pairs based on their level of aggression, the sum of the aggression scores of the individual cats in the pair was used to rank the cat pairs. Behavior data (behavioral scores) were further analyzed by Least Squares Analysis of variance using SAS (2011, SAS Inst., Inc., Cary, N.C.) software and the p-diff general linear model procedures to assess treatment differences within each time period. This statistical model included effects of treatment (TRT), cat-pair within treatment (TRT*CAT), time (HR), treatment by time (TRT*HR) and residual error (SE; used to test remaining effects). The previous study established that cats are attracted to litter treated with 2-methylbut-2-enal. In this study, 48 cats were used to determine the effect of litter treated with 2-methylbut-2-enal (RP) to the cat's various behaviors listed in Table 5. Litter was prepared in two batches, by mixing beads about 0.065″ in length both with and without 2-methylbut-2-enal. Blank beads were mixed thoroughly into one batch of litter so that the litter comprised about 3% (w/w) beads to form the control litter (CON). Similarly, beads containing a pheromone composition comprising 0.02% (w/w) 2-methylbut-2-enal (formed in accordance with Example 2 or 3) were mixed thoroughly into the other batch of litter so that the litter also comprised 3% (w/w) beads to form the treated litter (RP). Each batch of the litter was divided into 3 lb. aliquots that were ready to be tested. The 48 cats were randomly grouped into 24 same-sex pairs, which were divided into two groups with 12 pairs in each. The cats of each pair had either been housed individually or in groups of two previously, but had not been placed together prior to this study. As such, each cat was made sure to pair with an unfamiliar cat for the duration of the study. The first 12 pairs of two unfamiliar cats were tested over a 48-hour period. Subsequently, all chambers used were sanitized and aired out, and then the second group of 12 pair of cats was tested. Each pair of cats was placed in a kennel containing one food dish, one water dish, and one litter box. […]

cats [2] = assay: Example 6: animal litter composition with molded particles for use with cats; format: in vivo; details: animal litter composition comprising about 0.0004% to about 0.0006% (w/w) 2-methylbut-2-enal; most evident in the first 6-8 hours
Description: An animal litter composition comprising a pheromone composition can be prepared by first forming molded particles from a shaped polymeric matrix prepared in accordance with Example 4 or 5, wherein the molded particles comprise a pheromone composition comprising 2-methylbut-2-enal. The molded particles can then be combined with, mixed into, or otherwise incorporated into litter material upon use of the litter. An animal litter composition of about 2 lbs. to about 6 lbs. will comprise between about 0.01% and about 15% (w/w) molded particles (the molded particles comprising about 0.02% (w/w) 2-methylbut-2-enal) in order to be effective in alleviating litter dominant behavior and associated aggression and anxiety in cats exposed to the pheromone composition as released from the litter. For example, an animal litter comprising about 2% to about 3% molded particles will result in the litter comprising between about 0.0004% (w/w) and about 0.0006% (w/w) 2-methylbut-2-enal. Accordingly, it will be observed that an animal litter composition comprising about 0.0004% to about 0.0006% (w/w) 2-methylbut-2-enal will elicit a positive behavior modification in cats, which behavior modification can last at least 24 hours, and is most evident in the first 6-8 hours following exposure of the animal to the animal litter composition.

SMILES: C/C=C(\C)C=O [RP, 2-methylbut-2-enal]
- reduction of anxiety of the cats in pairs (cats [1]; Day 1 untreated litter (21%) to Day 2 treated litter (12%)): ~50%
- Average behavior score: Head in food/H2O dish (cats [1]; Day 2, RP litter (3% (w/w) beads with 0.02% (w/w) 2-methylbut-2-enal), 24 cat pairs, Day 1 Con 0.90): 1.05
- Average behavior score: Grooming other (cats [1]; Day 2, RP litter, 24 cat pairs, Day 1 Con 0.03): 0.01
- Average behavior score: In litter box - using (cats [1]; Day 2, RP litter, 24 cat pairs, Day 1 Con 0.07): 0.27
- Average behavior score: Neutral social interaction (cats [1]; Day 2, RP litter, 24 cat pairs, Day 1 Con 0.48): 0.33
- Average behavior score: Play (cats [1]; Day 2, RP litter, 24 cat pairs, Day 1 Con 0.65): 0.52
- Average behavior score: Grooming self (cats [1]; Day 2, RP litter, 24 cat pairs, Day 1 Con 0.70): 0.77
- Average behavior score: Lying/sitting - touching (cats [1]; Day 2, RP litter, 24 cat pairs, Day 1 Con 0.89): 0.98
- Average behavior score: Sleeping (cats [1]; Day 2, RP litter, 24 cat pairs, Day 1 Con 1.98): 2.71
- Average behavior score: In litter box - not using (cats [1]; Day 2, RP litter, 24 cat pairs, Day 1 Con 2.10): 2.73
- Average behavior score: Aggression (cats [1]; Day 2, RP litter, 24 cat pairs, Day 1 Con 3.00): 1.95
- Average behavior score: Locomotion (cats [1]; Day 2, RP litter, 24 cat pairs, Day 1 Con 3.19): 4.66
- Average behavior score: Lying/sitting - not touching (cats [1]; Day 2, RP litter, 24 cat pairs, Day 1 Con 17.0): 15.4
- Average behavior score: Anxiety (%) (cats [1]; Day 2, RP litter, 24 cat pairs, percentage of time over 24 hours, Day 1 Con 21.0): 12.0%
- Average aggression score by pair, Day 2 (RP) (cats [1]; Pair 1 (M, M), rank 6, Day 1 (con) 2.92): 0.13
- Average aggression score by pair, Day 2 (RP) (cats [1]; Pair 2 (M, M), rank 24, Day 1 (con) 0.00): 0.00
- Average aggression score by pair, Day 2 (RP) (cats [1]; Pair 3 (M, M), rank 4, Day 1 (con) 6.33): 3.42
- Average aggression score by pair, Day 2 (RP) (cats [1]; Pair 4 (M, M), rank 3, Day 1 (con) 6.50): 0.08
- Average aggression score by pair, Day 2 (RP) (cats [1]; Pair 5 (M, M), rank 5, Day 1 (con) 3.58): 4.67
- Average aggression score by pair, Day 2 (RP) (cats [1]; Pair 6 (M, M), rank 13, Day 1 (con) 1.08): 0.13
- Average aggression score by pair, Day 2 (RP) (cats [1]; Pair 7 (F, F), rank 20, Day 1 (con) 0.04): 0.33
- Average aggression score by pair, Day 2 (RP) (cats [1]; Pair 8 (F, F), rank 14, Day 1 (con) 0.50): 0.88
- Average aggression score by pair, Day 2 (RP) (cats [1]; Pair 9 (F, F), rank 19, Day 1 (con) 0.08): 0.08
- Average aggression score by pair, Day 2 (RP) (cats [1]; Pair 10 (F, F), rank 2, Day 1 (con) 10.13): 3.25
- Average aggression score by pair, Day 2 (RP) (cats [1]; Pair 11 (F, F), rank 12, Day 1 (con) 1.63): 1.50
- Average aggression score by pair, Day 2 (RP) (cats [1]; Pair 12 (F, F), rank 23, Day 1 (con) 0.00): 0.00
- Average aggression score by pair, Day 2 (RP) (cats [1]; Pair 13 (M, M), rank 1, Day 1 (con) 27.00): 18.25
- Average aggression score by pair, Day 2 (RP) (cats [1]; Pair 14 (M, M), rank 8, Day 1 (con) 2.54): 2.58
- Average aggression score by pair, Day 2 (RP) (cats [1]; Pair 15 (M, M), rank 7, Day 1 (con) 2.54): 3.83
- Average aggression score by pair, Day 2 (RP) (cats [1]; Pair 16 (C, M), rank 11, Day 1 (con) 1.63): 0.71
- Average aggression score by pair, Day 2 (RP) (cats [1]; Pair 17 (M, M), rank 9, Day 1 (con) 2.46): 2.13
- Average aggression score by pair, Day 2 (RP) (cats [1]; Pair 18 (M, M), rank 10, Day 1 (con) 2.38): 1.88
- Average aggression score by pair, Day 2 (RP) (cats [1]; Pair 19 (M, M), rank 15, Day 1 (con) 0.33): 0.00
- Average aggression score by pair, Day 2 (RP) (cats [1]; Pair 20 (F, F), rank 22, Day 1 (con) 0.00): 0.21
- Average aggression score by pair, Day 2 (RP) (cats [1]; Pair 21 (F, F), rank 18, Day 1 (con) 0.08): 0.92
- Average aggression score by pair, Day 2 (RP) (cats [1]; Pair 22 (F, F), rank 16, Day 1 (con) 0.17): 0.13
- Average aggression score by pair, Day 2 (RP) (cats [1]; Pair 23 (F, F), rank 17, Day 1 (con) 0.08): 1.00
- Average aggression score by pair, Day 2 (RP) (cats [1]; Pair 24 (F, F), rank 21, Day 1 (con) 0.00): 0.63
- litter box weight, Change (RP) (cats [1]; RP after minus RP before, CON change 0.02): 0.11
- Changes in litter box weights, % difference (cats [1]; RP change versus CON change): 438%
- litter box weight, RP after (cats [1]; after 24 hours of use, RP before 2.1): 2.21
- reduction of aggression from Day 1 to Day 2 (cats [1]; aggression score 3.0 to 1.95 after exposure to RP litter): 68.3%
- increase of litter box use (cats [1]; score 0.07 (Day 1 CON) to 0.27 (Day 2 RP)): 386%
- duration of positive behavior modification in cats (cats [2]): at least 24 hours
